Values quoted from earlier work as cited in patent US20230285259A1, “METHOD FOR DYEING KERATINOUS MATERIAL, COMPRISING THE USE OF AN ORGANOSILICON COMPOUND, A DERIVATIVE OF ALKYLATED SILANOL, A COLORING COMPOUND AND A POST-TREATMENT AGENT” (Henkel AG & Co. KGaA, priority 2020, published 2023).

Details: 25° C.

| solubility in water | solubility in water (in words) | Compound |
| --- | --- | --- |
| more than 20 wt. % | – | CCN(Cc1cccc(S(=O)(=O)O)c1)c1ccc(C(=C2C=CC(=[N+](CC)Cc3cccc(S(=O)(=O)O)c3)C=C2)c2ccccc2S(=O)(=O)[O-])cc1 [Acid Blue 9] |
| above 40 g/L | – | O=[N+]([O-])c1cc([N+](=O)[O-])c2ccc(S(=O)(=O)O)cc2c1O [Acid Yellow 9, 8-hydroxy-5,7-dinitro-2-naphthalenesulfonic acid] |
| – | highly soluble | O=C(O)C1=NN(c2ccc(S(=O)(=O)O)cc2)C(=O)C1N=Nc1ccc(S(=O)(=O)O)cc1 (stereo not shown) [Acid Yellow 23, 4,5-dihydro-5-oxo-1-(4-sulfophenyl)-4-((4-sulfophenyl)azo)-1H-pyrazole-3-carboxylic acid] |

| Compound | solubility in water | solubility in water (in words) |
| --- | --- | --- |
| O=S(=O)(O)c1ccc(N=Nc2c(O)ccc3ccccc23)cc1 [Acid Orange 7, 4-[(2-hydroxy-1-naphthyl)azo]benzene sulphonate] | more than 7 g/L | – |
